Results: ChEMBL document CHEMBL5120902, “Phytohabitols A-C, δ-Lactone-Terminated Polyketides from an Actinomycete of the Genus Phytohabitans” (J Nat Prod, 2022)
pIC50: −log10 of the molar value. In brackets after ≈: the same amount, converted by molar mass.

Assays:
[1] = Cytotoxicity against human EC17 cells at 0.18 to 18 uM incubated for 12 hrs; type: toxicity, cell-based; settings: ec17, 12 h, dose 0.18-18 µM
[2] = Selectivity ratio of GI50 for cytotoxicity against rat 3Y1 cells to IC50 for antitrypanosomal activity against Trypanosoma cruzi epimastigotes; type: toxicity, cell-based
Kocuria rhizophila = assay: Antibacterial activity against Kocuria rhizophila assessed as inhibition of bacterial growth incubated for 48 hrs by liquid microculture method; type: functional
[3] = Antimigratory activity against human EC17 cells assessed as inhibition of cell migration incubated for 12 hrs by microscopic analysis; type: functional, cell-based; settings: EC17, 12 h
Trypanosoma cruzi = assay: Antitrypanosomal activity against Trypanosoma cruzi epimastigotes assessed as parasite growth inhibition measured after 24 hrs by CellTiter-glo luminescence assay; type: functional, organism-based
Bacillus subtilis = assay: Antibacterial activity against Bacillus subtilis assessed as inhibition of bacterial growth incubated for 48 hrs by liquid microculture method; type: functional
[4] = Cytotoxicity against rat 3Y1 cells assessed as cell growth inhibition incubated for 84 hrs by MTT assay; type: toxicity, cell-based

| MIC (Kocuria rhizophila) [µg/mL] | pIC50 [3] | pIC50 (Trypanosoma cruzi) | MIC (Bacillus subtilis) [µg/mL] | Structure (SMILES) | Activity [1] | selectivity ratio [2] | GI50 at 84 h [4] [µM] |
| --- | --- | --- | --- | --- | --- | --- | --- |
| 100 (≈ 184 µM) | 4.96 | 5.19 | 100 (≈ 184 µM) | C/C=C(\C)[C@@H](O)[C@H](C)[C@H](O)C/C=C(C)/C=C(\C)C/C(C)=C/C/C=C(\C)[C@@H](O)[C@@H](C)[C@H]1CC[C@H](CCC)C(=O)O1 | Non-Toxic | 4.9 | 31 |
| 100 (≈ 179 µM) | 4.82 | 4.92 | 100 (≈ 179 µM) | C/C=C(\C)[C@@H](O)[C@H](C)[C@H](O)C/C=C(C)/C=C(\C)C/C(C)=C/C/C=C(\C)[C@@H](O)[C@@H](C)[C@H]1CC[C@H](CCCC)C(=O)O1 | Non-Toxic | 2.8 | 32 |
| 100 (≈ 188 µM) | 5.08 | 4.74 | 100 (≈ 188 µM) | C/C=C(\C)[C@@H](O)[C@H](C)[C@H](O)C/C=C(C)/C=C(\C)C/C(C)=C/C/C=C(\C)[C@@H](O)[C@@H](C)[C@H]1CC[C@H](CC)C(=O)O1 | Non-Toxic | 0.22 | 3.8 |

| Structure (SMILES) | MIC (Kocuria rhizophila) [µg/mL] | pIC50 [3] | pIC50 (Trypanosoma cruzi) | MIC (Bacillus subtilis) [µg/mL] | Activity [1] | selectivity ratio [2] | GI50 at 84 h [4] [µM] |
| --- | --- | --- | --- | --- | --- | --- | --- |
| O=C(Cn1ccnc1[N+](=O)[O-])NCc1ccccc1 [BENZNIDAZOLE] |  |  | 4.80 |  |  |  |  |
